This is an account of results in ChEMBL document CHEMBL1128423, “Synthesis and evaluation of 6,11-ethanohexahydrobenzo[b]quinolizidines: a new class of noncompetitive N-methyl-D-aspartate antagonists” (J Med Chem, 1995).

pKi: −log10 of the molar value.

This experiment has as its target Glutamate NMDA receptor. The experiment can be described thus: Displacement of [3H]TCP from NMDA receptor of rat brain membranes. It counts as cell membranes, Membrane. On the technique in general: In a radioligand displacement assay an active substance lowers the binding of a labelled ligand.
Consider `Nc1ccc2c(c1)C1C3CCCC3C2N2CCCCC12` (configuration not stated), for which the pKi was 7.92. `c1ccc2c(c1)C1C3CCCCC3C2N2CCCCC12` (configuration not stated) had a negative logarithm of the Ki (pKi) of 6.87. To `Oc1ccc2c(c1)C1C3CCCC3C2N2CCCCC12` (configuration not stated) belongs 8.64; to `Oc1ccc2c(c1)C1C3CCCC3C2C2CCCCN21` (configuration not stated), 7.64. To `c1ccc2c(c1)C1C3OCCC3C2N2CCCCC12` (configuration not stated) belongs 6.22; to `Brc1ccc2c(c1)C1C3CCCC3C2N2CCCCC12` (configuration not stated), 7.39; to `Oc1cccc2c1C1C3CCCC3C2N2CCCCC12` (configuration not stated), 8.64. As to `c1ccc2c(c1)C1C3CCCC3C2N2CCCCC12` (configuration not stated), the pKi is 7.82. In turn, `CC12c3ccccc3C(C3CCCC31)N1CCCCC12` (configuration not stated) had a pKi of 7.34. The value for `c1ccc2c(c1)C1CCC2N2CCCCC12` (configuration not stated) was 6.62; that for `c1ccc2c(c1)CC1CCCCN1C2` (configuration not stated) was 5.00; that for `Fc1ccc2c(c1)C1C3CCCC3C2N2CCCCC12` (configuration not stated) was 7.70.

Usually pKi stands for −log10 of the Ki, conventionally taken in molar units.
